From patent US4797362A (priority 1985, dated 1989)
Read-outs that look alike come from different tables or passages of the source. Numbered stars: 1 amine (or outer) side, 2 acyl side, 3 side chain; on linkers, the order of the positions; unused ones are H or OH. Peptide text beside a SMILES is read from it. CO = O=C([*:1])[*:2]

Key:
[1] = system: alkaline protease Yb (enzyme Yb) produced by Bacillus sp. Y (FERM BP-1029); format: biochemical; settings: for Relative Activity Enzyme Yb: pH 7.2, 30 min
[2] = system: alkaline protease Ya (enzyme Ya) produced by Bacillus sp. Y (FERM BP-1029); format: biochemical; settings: for Relative Activity Enzyme Ya: pH 7.2, 30 min

Compound | Inhibition of enzyme Yb (in words) [1] | Relative Activity Enzyme Yb [1] | Inhibition of enzyme Ya (in words) [2] | Relative Activity Enzyme Ya [2] | Relative Activity Enzyme Yb ([1]; 5000 µM) | Relative Activity Enzyme Ya ([2]; 5000 µM) | Relative Activity Enzyme Yb ([1]; 1000 µM) | Relative Activity Enzyme Ya ([2]; 1000 µM)
CC(C)[C@H](NC(=O)[C@H](CCCNC(=N)N)NC(=O)N[C@@H](Cc1ccccc1)C(=O)O)C(=O)N[C@H](C=O)CCCNC(=N)N [Antipain] ({Phe-CO}-Arg-Val-Arg-aldehyde) | not inhibited | 87 | not inhibited | 124 |  |  |  | 
O=C(O)CN(CCN(CC(=O)O)CC(=O)O)CC(=O)O [EDTA] | not inhibited |  | not inhibited |  | 100 | 97 |  | 
O=C(O)c1cc[c]([Hg][Cl])cc1 [PCMB] | not inhibited |  | not inhibited |  |  |  | 92 | 122
O=S(=O)(F)Cc1ccccc1 [PMSF] | inhibited |  | inhibited |  |  |  | 1 | 0
NC(N)=O [Urea] |  | 82 |  | 130 |  |  |  | 
Chymostatin | not inhibited | 75 | not inhibited | 77 |  |  |  | 
